Marks after values point to notes of the source that are not given here.

One assay has as its system normal rats. Nature of the assay: Hypoglycaemic activity on OGTT of normal rats (sucrose-loaded rat model). It counts as in vivo, Sprague Dawley rats. Conditions: 100-mg/kg, oral, 120 min post glucose load. The procedure: Sucrose-Loaded Rat Model:
Overnight fasted male Sprague Dawley rats were used for the sucrose-loaded experiment. Blood was collected at ‘0’ min from the tail vein of the animals. After the ‘0’ min blood collection, samples/drugs were given to the test group consisting of 5 rats by oral gavage at a dose of 100 mg/kg. Half an hour post test sample treatment, a sucrose-load of 10.0 gm/kg body weight was given to each rat. The blood was collected at 30, 60, 90 & 120 min post sucrose-load.
The antidiabetic effect of test compounds (compound no. 1 and 4) and standard drug Glybenclamide, Gliclazide on OGTT of normal rats was determined.

Assay [1] has as its system STZ-induced diabetic rats. The assay is described as follows: Streptozotocin-induced diabetic rat model, single-dose effect on blood glucose. Conditions: 100 mg/kg; for lowering on blood glucose in STZ-induced diabetic rats: 1 to 7 hours post drug administration; for start of blood glucose lowering post drug administration: STZ-induced diabetic rats. It counts as in vivo, Sprague Dawley rats. On the procedure: Streptozotocin-Induced Diabetic Rat Model:
Single-dose effect; Sprague Dawley strain male albino rats of average body weight 160±20 g were selected for this study. A calculated amount of the fresh solution of STZ dissolved in 100 mM citrate buffer (ph 4.5) was injected to overnight fasted rats (60 mg/Kg) intraperitoneally. Blood was checked for glucose content 48 h later by glucometer & animals showing blood glucose profile above 250 mg/dl were selected and were divided into different groups. Blood-glucose levels were again tested at 1, 2, 3, 4, 5, 6, 7 and 24 h post test sample/drug administration. Food but not water was withdrawn from the cages during the experiment.
The effect of Test compound 1 and standard antidiabetic drug Glybenclamide and gliclazide on blood glucose lowering in STZ-induced diabetic rats were determined. […] The lowering started from 1-hour that persisted up to 7-hours post drug administration.

For assay [2], the system named is HFD fed dyslipemic hamsters. The assay is described as follows: Dyslipemic hamster model (fructose rich high fat diet). It counts as in vivo, golden syrian hamster. The text has this:
(b) Dyslipemic Hamster Model: Male golden syrian hamster weighing 120–130 gm were divided into control, dyslipemic and dyslipemic plus drug treated group of 8 animals in each.
Dyslipemia was produced by feeding with fructose rich high fat diet(HFD). Dyslipemic hamsters had free acccess to HFD and water ad. Lib for 10 days (day 1 to day 10). Compound 1 was macerated in vehicle containing 0.2% CMC+0.4% tween-80 in distilled water and fed orally at the dose of 300[…] mole/kg from day 4 to day 10 simultaneously with HFD feeding to hamster. Control animals received same amount of vehicle. At the end of the experiment on 10th day, blood was withdrawn and plasma was used for assay of triglyceride(Tg), cholesterol(chol), high density lipoprotein(HDL), glucose, glycerol and free fatty acids(FFA) by standard spectrophotometric methods on auto analyser. In another set of experiment antidyslipemic activity of fenofibrate at the dose of 1000[…] mole/kg was evaluated.

Assay [3] deals with hyperlipedemic rats (triton WR-1339). Nature of the assay: Lipid lowering activity, Triton model (triton WR-1339 induced hyperlipedemia). It counts as in vivo, Charles foster rats. The settings on record: 100 mg/kg oral simultaneously with triton, plasma after 18 hrs, vs hyperlipemic group. On the procedure: (a)Triton Model: Male Charles foster rats weighing 200–225 g were divided into control, hyperlipedemic and hyperlipedemic plus drug treated groups containing six animals each. Hyperlipedemia was induced by administration of triton WR-1339(400 mg/kg,IP). All animals were maintained on standard pellet diet and water ad lib. Test compound no. 1 and Gugulipid (standard drug) were macerated with 2% aqueous gum acacia and this suspension was fed orally at the dose of 100 mg/kg simultaneously with triton. The animals of control group received same amount of gum acacia. At the end of experiment, after 18 hrs, blood was withdrawn from retro orbital plexus and plasma was used for the assay of total cholesterol, phospholipid and triglyceride by standard spectrophotometric method. Results: Administration of triton in rats produced marked hyperlipedemia as observed by the increased levels of plasma cholesterol, phospholipid and triglyceride by 2.92, 3.32, 3.64 folds respectively (Table-1).

The mark [4] stands for this setting: 1000 μmol/kg, another set of experiment.
The mark [5] stands for this setting: dose 1000 (μ)mole/kg, HFD fed dyslipemic hamsters.
The mark [6] stands for this setting: 300 μmol/kg oral day 4 to day 10, plasma on 10th day.
The mark [7] stands for this setting: dose 300 (μ)mole/kg, HFD fed hamsters.

For `COc1ccc(Cl)cc1C(=O)NCCc1ccc(S(=O)(=O)NC(=O)NC2CCCCC2)cc1` [Glybenclamide], the “lowering on OGTT of normal rats” value with normal rats was found to be 33.9%. In addition, in assay [1], the “lowering on blood glucose in STZ-induced diabetic rats” value (shortened to “lowering on blood glucose”) is 32.8% and the “start of blood glucose lowering post drug administration” value is 1 h.
Take `CC(C)OC(=O)C(C)(C)Oc1ccc(C(=O)c2ccc(Cl)cc2)cc1` [Fenofibrate]: in assay [2] (setting [4]), the “per cent change in CHOL” value is reported as −30** per cent, the “per cent change in FFA” value is recorded as −53** per cent, the “per cent change in GLU” value is recorded as −33** per cent and the “per cent change in GLY” value is given as −52** per cent. In assay [2] (setting [4]), the “per cent change in HDL” value is reported as “+33** per cent” and the “per cent change in TG” value is −77** per cent. In addition, in assay [2] (setting [5]), the “increase in plasma HDL” value was found to be 33%, the “lowering in plasma FFA” value stood at 53%, the “lowering in plasma Tg” value is on record as 77% and the “lowering in plasma chol” value was 30%. Moreover, in assay [2] (setting [5]), the “lowering in plasma glucose” value was 33% and the “lowering in plasma glycerol” value is 52%.
For `Cc1ccc(S(=O)(=O)NC(=O)NN2CC3CCCC3C2)cc1` (stereo not drawn) [Gliclazide], the “lowering on OGTT of normal rats” value in the assay on normal rats came out at 44.8%. In addition, in assay [1], the “lowering on blood glucose” value was 27.7% and the “start of blood glucose lowering post drug administration” value amounted to 1 h.
With `COc1ccc(NCCCOc2ccc3ccccc3c2)cc1` [Compound 1, N-(4-Methoxyphenyl)-[3-(naphthalen-2-yloxy)propyl]amine], the “lowering on OGTT of normal rats” value in the assay on normal rats amounted to 33.6%. In assay [1], the “lowering on blood glucose” value is 28.0% and the “start of blood glucose lowering post drug administration” value is 1 h. Moreover, in assay [3], the “% lowering of plasma lipids: Triglyceride” value was 28%. In addition, in assay [3] (listed as Test Compound 1), the “% lowering of plasma lipids: Cholesterol” value is listed as 26* %, the “% lowering of plasma lipids: Phospholipid” value is recorded as 33** % and the “% lowering of plasma lipids: Triglyceride” value is on record as 28* %. For the same molecule, in assay [2] (setting [6]), the “per cent change in CHOL” value is listed as −8 per cent, the “per cent change in GLU” value is recorded as −31** per cent, the “per cent change in GLY” value is on record as −14 per cent and the “per cent change in HDL” value is on record as “+15 per cent”. Besides, the “per cent change in TG” value in assay [2] (setting [6]) was −48** per cent. Besides, in assay [2] (setting [7]), the “change in FFA levels” value is recorded as “No significant change”, the “increase in plasma HDL” value was 15%, the “reduced level of plasma Tg” value is recorded as 48% and the “reduced level of plasma chol” value is on record as 8%. Further, in assay [2] (setting [7]), the “reduced level of plasma glucose” value turned out to be 31% and the “reduced level of plasma glycerol” value is listed as 14%.

The record behind these values is patent publication US7081465B2, “Alpha-substituted naphthyloxy omega-substituted alky/aryl amino-substituted alkane derivatives as agent for treatment or prophylaxis of diabetes and related metabolic disorders” (Council of Scientific and Industrial Research, priority 2003, dated 2006).
